Results taken from patent US20130071854A1, “METHODS FOR THE IDENTIFICATION AND CHARACTERIZATION OF HDAC INTERACTING COMPOUNDS” (priority 2009, published 2013).
Where two headings read alike, the source gives them in different places.

Columns and labels:
NuRD complex = assay: Chemoproteomic binding profiling, K562 cell extract, SAHA/ITF2357 probe matrix (Kd app); parameters: species or system human
HDAC6 = molecular target: T1, HDAC6 (Homo sapiens, UniProt Q9UBN7); assay: as above; parameters: used to probe endogenous HDACs in K562 whole cell extracts; endogenous in cells; conditions: for binding profile for HDAC6 (in words): K562 cell extract
T1 sequence (Q9UBN7 1-1215): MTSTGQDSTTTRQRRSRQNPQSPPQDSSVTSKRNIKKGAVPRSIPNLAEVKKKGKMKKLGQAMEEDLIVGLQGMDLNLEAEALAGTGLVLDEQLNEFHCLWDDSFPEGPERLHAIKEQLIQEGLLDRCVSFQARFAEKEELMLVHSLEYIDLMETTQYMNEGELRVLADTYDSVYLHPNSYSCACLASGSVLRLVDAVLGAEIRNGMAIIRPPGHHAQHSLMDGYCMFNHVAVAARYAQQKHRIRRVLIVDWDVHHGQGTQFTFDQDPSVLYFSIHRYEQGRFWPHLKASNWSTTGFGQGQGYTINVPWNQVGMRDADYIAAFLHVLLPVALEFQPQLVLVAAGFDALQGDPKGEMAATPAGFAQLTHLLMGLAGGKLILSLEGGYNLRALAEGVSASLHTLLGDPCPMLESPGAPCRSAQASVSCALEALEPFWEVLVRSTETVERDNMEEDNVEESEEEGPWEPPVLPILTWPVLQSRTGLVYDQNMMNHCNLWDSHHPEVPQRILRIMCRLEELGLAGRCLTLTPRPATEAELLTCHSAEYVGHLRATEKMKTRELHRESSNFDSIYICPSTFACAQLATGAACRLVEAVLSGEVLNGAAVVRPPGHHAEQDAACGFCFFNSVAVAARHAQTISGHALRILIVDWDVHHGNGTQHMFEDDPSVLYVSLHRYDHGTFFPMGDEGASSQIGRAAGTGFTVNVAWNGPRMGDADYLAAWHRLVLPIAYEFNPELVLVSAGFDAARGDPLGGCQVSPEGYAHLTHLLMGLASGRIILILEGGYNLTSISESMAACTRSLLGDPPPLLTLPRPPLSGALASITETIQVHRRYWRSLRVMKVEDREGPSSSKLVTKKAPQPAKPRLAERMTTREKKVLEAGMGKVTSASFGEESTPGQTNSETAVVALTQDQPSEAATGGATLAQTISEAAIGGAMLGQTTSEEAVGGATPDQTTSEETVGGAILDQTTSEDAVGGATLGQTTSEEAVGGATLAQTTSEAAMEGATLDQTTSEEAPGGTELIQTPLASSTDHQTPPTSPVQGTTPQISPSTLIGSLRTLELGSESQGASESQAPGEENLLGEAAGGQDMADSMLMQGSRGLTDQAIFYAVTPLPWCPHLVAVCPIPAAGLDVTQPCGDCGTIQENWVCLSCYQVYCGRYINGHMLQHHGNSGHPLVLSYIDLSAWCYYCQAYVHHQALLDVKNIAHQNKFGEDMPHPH

MIER1 = assay: Chemoproteomic binding profiling, K562 cell extract, SAHA/ITF2357 probe matrix (Kd app), ELSA (ELM-SANT) domain protein; parameters: species or system human; conditions: ELSA (ELM-SANT) domain proteins
HDAC10 = molecular target: T2, HDAC10 (Homo sapiens, UniProt Q969S8); assay: Chemoproteomic binding profiling, K562 cell extract, SAHA/ITF2357 probe matrix (Kd app); conditions: for binding profile for HDAC10 (in words): K562 cell extract
T2 construct: used to probe endogenous HDACs in K562 whole cell extracts; endogenous in cells
T2 sequence (Q969S8 1-669): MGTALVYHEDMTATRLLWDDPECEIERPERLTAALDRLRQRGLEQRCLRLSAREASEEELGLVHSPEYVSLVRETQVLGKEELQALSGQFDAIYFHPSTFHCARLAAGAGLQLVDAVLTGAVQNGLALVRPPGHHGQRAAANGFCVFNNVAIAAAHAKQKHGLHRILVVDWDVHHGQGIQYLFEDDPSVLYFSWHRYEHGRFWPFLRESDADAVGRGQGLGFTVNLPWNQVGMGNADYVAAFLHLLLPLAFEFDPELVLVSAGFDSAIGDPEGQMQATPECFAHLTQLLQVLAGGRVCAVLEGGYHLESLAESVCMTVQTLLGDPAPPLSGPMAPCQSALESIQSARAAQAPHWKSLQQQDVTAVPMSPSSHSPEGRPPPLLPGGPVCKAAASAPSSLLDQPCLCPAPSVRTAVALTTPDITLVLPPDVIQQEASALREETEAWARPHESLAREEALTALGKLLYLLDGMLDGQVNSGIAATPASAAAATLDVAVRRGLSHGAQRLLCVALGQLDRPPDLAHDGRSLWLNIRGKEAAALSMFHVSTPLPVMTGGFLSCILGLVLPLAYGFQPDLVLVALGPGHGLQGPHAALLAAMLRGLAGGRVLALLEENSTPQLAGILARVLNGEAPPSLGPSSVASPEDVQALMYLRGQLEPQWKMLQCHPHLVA

CoREST complex = assay: as above; parameters: species or system human
MIER3 = assay: Chemoproteomic binding profiling, K562 cell extract, SAHA/ITF2357 probe matrix (Kd app), ELSA (ELM-SANT) domain protein; parameters: species or system human; conditions: ELSA (ELM-SANT) domain proteins
EHMT2 = assay: Chemoproteomic binding profiling, K562 cell extract, SAHA/ITF2357 probe matrix (Kd app), ELSA (ELM-SANT) domain proteins group; parameters: species or system human; conditions: protein EHMT2
RERE = assay: Chemoproteomic binding profiling, K562 cell extract, SAHA/ITF2357 probe matrix (Kd app), ELSA (ELM-SANT) domain protein; parameters: species or system human; conditions: protein RERE; ELSA (ELM-SANT) domain proteins
[1] = molecular target: MiDAC complex (HDAC1/2, DNTTIP1, CDYL, MIDEAS) (Homo sapiens, UniProt Q13547+Q92769); assay: Chemoproteomic binding profiling, K562 cell extract, SAHA/ITF2357 probe matrix (Kd app); parameters: rows headed: Kd^app CDYL; other: protein CDYL; MiDAC complex; conditions: protein CDYL
MiDAC complex (HDAC1/2, DNTTIP1, CDYL, MIDEAS), sequence (Q13547 whole entry): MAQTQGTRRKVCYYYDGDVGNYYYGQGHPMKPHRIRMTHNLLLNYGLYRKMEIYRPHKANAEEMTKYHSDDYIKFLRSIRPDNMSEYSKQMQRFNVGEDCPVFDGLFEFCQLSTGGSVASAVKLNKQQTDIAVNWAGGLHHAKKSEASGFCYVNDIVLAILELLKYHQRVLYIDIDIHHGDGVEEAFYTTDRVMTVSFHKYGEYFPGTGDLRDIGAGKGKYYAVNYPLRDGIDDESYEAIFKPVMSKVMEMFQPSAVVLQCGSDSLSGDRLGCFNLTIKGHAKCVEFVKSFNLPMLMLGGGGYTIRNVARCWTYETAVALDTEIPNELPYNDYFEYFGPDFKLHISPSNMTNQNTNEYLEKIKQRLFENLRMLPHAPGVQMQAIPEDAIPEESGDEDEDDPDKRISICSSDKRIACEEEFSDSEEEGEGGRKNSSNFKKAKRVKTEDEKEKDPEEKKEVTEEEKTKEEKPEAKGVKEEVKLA
MiDAC complex (HDAC1/2, DNTTIP1, CDYL, MIDEAS), sequence (Q92769 whole entry): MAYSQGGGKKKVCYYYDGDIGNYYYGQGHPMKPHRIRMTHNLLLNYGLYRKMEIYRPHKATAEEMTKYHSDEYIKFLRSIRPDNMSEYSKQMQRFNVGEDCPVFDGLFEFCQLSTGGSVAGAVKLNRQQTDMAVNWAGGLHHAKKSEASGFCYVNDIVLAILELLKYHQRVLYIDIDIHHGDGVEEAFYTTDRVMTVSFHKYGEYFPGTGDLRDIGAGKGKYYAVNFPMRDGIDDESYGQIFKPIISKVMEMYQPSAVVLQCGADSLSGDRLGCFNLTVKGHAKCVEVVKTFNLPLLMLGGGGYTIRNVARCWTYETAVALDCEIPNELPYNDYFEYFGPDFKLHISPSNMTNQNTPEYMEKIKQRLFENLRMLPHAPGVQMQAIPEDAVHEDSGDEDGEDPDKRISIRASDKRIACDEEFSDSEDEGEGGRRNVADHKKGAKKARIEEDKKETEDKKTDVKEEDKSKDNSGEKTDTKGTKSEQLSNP
MiDAC complex (HDAC1/2, DNTTIP1, CDYL, MIDEAS), sequence (Q9Y232 whole entry partner): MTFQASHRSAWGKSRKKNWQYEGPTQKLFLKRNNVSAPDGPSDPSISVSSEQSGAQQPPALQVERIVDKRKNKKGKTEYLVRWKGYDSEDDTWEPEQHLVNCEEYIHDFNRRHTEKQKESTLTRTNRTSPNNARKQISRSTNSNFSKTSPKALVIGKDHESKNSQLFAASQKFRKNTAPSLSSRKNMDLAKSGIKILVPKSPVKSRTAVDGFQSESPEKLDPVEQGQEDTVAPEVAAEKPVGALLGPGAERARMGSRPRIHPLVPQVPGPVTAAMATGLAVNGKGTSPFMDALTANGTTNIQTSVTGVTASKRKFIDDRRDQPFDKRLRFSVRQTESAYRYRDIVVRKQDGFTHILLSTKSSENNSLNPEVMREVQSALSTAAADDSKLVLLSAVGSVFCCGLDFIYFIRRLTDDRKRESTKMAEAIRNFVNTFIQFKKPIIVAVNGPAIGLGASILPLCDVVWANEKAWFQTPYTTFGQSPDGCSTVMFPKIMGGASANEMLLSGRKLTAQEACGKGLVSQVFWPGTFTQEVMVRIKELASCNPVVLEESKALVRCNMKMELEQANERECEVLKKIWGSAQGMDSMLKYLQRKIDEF
MiDAC complex (HDAC1/2, DNTTIP1, CDYL, MIDEAS), sequence (Q9H147 whole entry partner): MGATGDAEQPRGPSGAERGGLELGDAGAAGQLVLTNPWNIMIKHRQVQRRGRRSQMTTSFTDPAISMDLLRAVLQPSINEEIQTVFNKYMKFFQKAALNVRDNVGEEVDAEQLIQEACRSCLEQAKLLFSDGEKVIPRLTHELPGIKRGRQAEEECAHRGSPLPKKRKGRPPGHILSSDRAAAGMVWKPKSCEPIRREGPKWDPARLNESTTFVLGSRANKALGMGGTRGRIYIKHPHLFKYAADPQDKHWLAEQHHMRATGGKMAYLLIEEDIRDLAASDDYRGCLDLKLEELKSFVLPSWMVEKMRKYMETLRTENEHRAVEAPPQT
MiDAC complex (HDAC1/2, DNTTIP1, CDYL, MIDEAS), sequence (Q6PJG2 whole entry partner): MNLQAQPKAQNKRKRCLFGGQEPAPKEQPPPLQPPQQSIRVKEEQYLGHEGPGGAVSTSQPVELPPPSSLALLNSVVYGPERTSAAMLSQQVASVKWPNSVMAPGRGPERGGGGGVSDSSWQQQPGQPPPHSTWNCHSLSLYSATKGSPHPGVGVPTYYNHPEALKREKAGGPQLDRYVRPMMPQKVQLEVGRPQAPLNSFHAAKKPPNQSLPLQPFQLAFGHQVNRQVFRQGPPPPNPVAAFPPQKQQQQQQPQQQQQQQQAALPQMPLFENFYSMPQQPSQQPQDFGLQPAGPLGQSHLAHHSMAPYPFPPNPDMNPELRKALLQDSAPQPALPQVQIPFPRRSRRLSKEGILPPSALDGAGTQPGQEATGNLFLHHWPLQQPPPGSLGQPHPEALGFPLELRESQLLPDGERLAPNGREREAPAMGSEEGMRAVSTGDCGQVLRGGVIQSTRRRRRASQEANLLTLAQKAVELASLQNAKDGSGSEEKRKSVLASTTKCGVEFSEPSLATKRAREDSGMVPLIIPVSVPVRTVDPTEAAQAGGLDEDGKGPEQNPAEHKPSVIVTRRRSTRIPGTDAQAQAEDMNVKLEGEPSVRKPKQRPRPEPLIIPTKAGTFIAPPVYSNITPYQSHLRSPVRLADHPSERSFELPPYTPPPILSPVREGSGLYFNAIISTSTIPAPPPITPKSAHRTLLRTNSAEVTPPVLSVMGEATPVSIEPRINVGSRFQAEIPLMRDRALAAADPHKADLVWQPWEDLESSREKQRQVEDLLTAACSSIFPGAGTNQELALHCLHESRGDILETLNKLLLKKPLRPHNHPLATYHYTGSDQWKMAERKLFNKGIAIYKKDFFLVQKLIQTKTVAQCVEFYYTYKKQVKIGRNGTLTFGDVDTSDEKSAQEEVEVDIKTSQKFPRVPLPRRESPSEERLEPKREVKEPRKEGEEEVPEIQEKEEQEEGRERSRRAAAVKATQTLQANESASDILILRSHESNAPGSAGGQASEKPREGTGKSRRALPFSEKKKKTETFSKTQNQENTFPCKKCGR

SMARCC2 = assay: Competition binding assay in cell lysate, affinity matrix, MS (SMRT/NCoR interactor)
DNTTIP1 = assay: Competition binding assay in cell lysate, affinity matrix, MS; conditions: K-562 cell lysate
[2] = protein CHD4, NuRD complex, read-out: Kd^app CHD4
[3] = protein GATAD2A, NuRD complex, read-out: Kd^app GATAD2A
[4] = protein GATAD2B, NuRD complex, read-out: Kd^app GATAD2B
[5] = protein MBD2, NuRD complex, read-out: Kd^app MBD2
[6] = protein MBD3, NuRD complex, read-out: Kd^app MBD3
[7] = protein MTA1, NuRD complex, read-out: Kd^app MTA1
[8] = protein MTA3, NuRD complex, read-out: Kd^app MTA3
[9] = protein HDAC6, class II HDAC, read-out: Kd^app HDAC6
[10] = protein HDAC10, class II HDAC, read-out: Kd^app HDAC10
[11] = protein GSE1, CoREST complex, read-out: Kd^app GSE1
[12] = protein HMG20A, CoREST complex, read-out: Kd^app HMG20A
[13] = protein HMG20B, CoREST complex, read-out: Kd^app HMG20B
[14] = protein RCOR1, CoREST complex, read-out: Kd^app RCOR1
[15] = protein RCOR2, CoREST complex, read-out: Kd^app RCOR2
[16] = protein RCOR3, CoREST complex, read-out: Kd^app RCOR3
[17] = protein ZMYM2, CoREST complex, read-out: Kd^app ZMYM2
[18] = protein ZMYM3, CoREST complex, read-out: Kd^app ZMYM3
[19] = protein MTA2, NuRD complex, read-out: Kd^app MTA2

Kd (HDAC10; [10]) [µM] | Structure (SMILES) | Kd (NuRD complex; [2]) [µM] | Kd (NuRD complex; [3]) [µM] | Kd (NuRD complex; [4]) [µM] | Kd (NuRD complex; [5]) [µM] | Kd (NuRD complex; [6]) [µM] | Kd (NuRD complex; [7]) [µM] | Kd (NuRD complex; [8]) [µM] | Kd (MIER1) [µM] | Kd (CoREST complex; [11]) [µM] | Kd (CoREST complex; [12]) [µM] | Kd (CoREST complex; [13]) [µM] | Kd (CoREST complex; [14]) [µM] | Kd (CoREST complex; [15]) [µM] | Kd (CoREST complex; [16]) [µM] | Kd (CoREST complex; [17]) [µM] | Kd (CoREST complex; [18]) [µM] | Kd (MIER3) [µM] | Kd (EHMT2) [µM] | Kd (RERE) [µM] | other results
– | O=C(/C=C/c1cccc(S(=O)(=O)Nc2ccccc2)c1)NO [belinostat] | – | – | – | – | – | – | – | 0.17 | – | – | – | – | – | – | – | – | – | – | – | Kd (HDAC6): 0.41 µM; Kd (HDAC10): 4.43 µM
10 | CCCCOc1ccc(CC(=O)NO)cc1 [bufexamac] | 386 | 572 | > 59.7 | – | 409 | 168 | 626 | 367 | > 59.7 | > 59.7 | > 59.7 | > 59.7 | > 59.7 | > 59.7 | 128 | 172 | 165 | 105 | 33 | Kd (NuRD complex; [19]): 555 µM; binding profile for HDAC6 (in words) (HDAC6): selectivity for HDAC6 and HDAC10; Kd (HDAC6; [9]): 10 µM; binding profile for HDAC10 (in words) (HDAC10): selectivity for HDAC6 and HDAC10; Kd [1]: 151 µM
– | O=C(CCCCCCC(=O)Nc1ccccc1)NO [SAHA, suberoylanilide hydroxamic acid] | – | – | – | – | – | – | – | – | – | – | – | – | – | – | – | – | – | – | – | IC50 (SMARCC2; K-562 cell lysate): 10 µM; IC50 (SMARCC2; mix of Jurkat and Ramos cell lysates): 10 µM; IC50 (DNTTIP1): 0.48 µM
> 10 | CCCC(CCC)C(=O)O [valproate, valproic acid] | 544 | 1040 | 843 | 1300 | 930 | 528 | 667 | 507 | 224 | 322 | 380 | 258 | 311 | 274 | 700 | 922 | 344 | 1210 | 3120 | Kd (NuRD complex; [19]): 997 µM; Kd (HDAC6; read-out: Kd^app HDAC6, protein HDAC6, class II HDAC): > 10 µM; Kd (CoREST complex; protein PHF21A, CoREST complex, read-out: Kd^app PHF21A): 438 µM
– | Nc1ccccc1NC(=O)c1ccc(CNC(=O)OCc2cccnc2)cc1 [MS-275] | – | – | – | – | – | – | – | > 300 | – | – | – | – | – | – | – | – | > 300 | > 300 | > 300 | IC50 (SMARCC2; K-562 cell lysate): 300 µM; Kd (NuRD complex; read-out: Kd^app CHD4): > 300 µM; Kd (NuRD complex; read-out: Kd^app GATAD2A): > 300 µM; Kd (NuRD complex; read-out: Kd^app GATAD2B): > 300 µM; Kd (NuRD complex; read-out: Kd^app MBD2): > 300 µM; Kd (NuRD complex; read-out: Kd^app MBD3): > 300 µM; Kd (NuRD complex; read-out: Kd^app MTA1): > 300 µM; Kd (NuRD complex; read-out: Kd^app MTA2): > 300 µM; Kd (NuRD complex; read-out: Kd^app MTA3): > 300 µM; IC50 (DNTTIP1): 300 µM; Kd (CoREST complex; read-out: Kd^app GSE1): > 300 µM; Kd (CoREST complex; read-out: Kd^app HMG20A): > 300 µM; Kd (CoREST complex; read-out: Kd^app HMG20B): > 300 µM; Kd (CoREST complex; read-out: Kd^app PHF21A): > 300 µM; Kd (CoREST complex; read-out: Kd^app RCOR1): > 300 µM; Kd (CoREST complex; read-out: Kd^app RCOR2): > 300 µM; Kd (CoREST complex; read-out: Kd^app RCOR3): > 300 µM; Kd (CoREST complex; read-out: Kd^app ZMYM2): > 300 µM; Kd (CoREST complex; read-out: Kd^app ZMYM3): > 300 µM

Structure (SMILES) | Kd (HDAC10; [10]) [µM] | Kd (NuRD complex; [2]) [µM] | Kd (NuRD complex; [3]) [µM] | Kd (NuRD complex; [4]) [µM] | Kd (NuRD complex; [5]) [µM] | Kd (NuRD complex; [6]) [µM] | Kd (NuRD complex; [7]) [µM] | Kd (NuRD complex; [8]) [µM] | Kd (MIER1) [µM] | Kd (CoREST complex; [11]) [µM] | Kd (CoREST complex; [12]) [µM] | Kd (CoREST complex; [13]) [µM] | Kd (CoREST complex; [14]) [µM] | Kd (CoREST complex; [15]) [µM] | Kd (CoREST complex; [16]) [µM] | Kd (CoREST complex; [17]) [µM] | Kd (CoREST complex; [18]) [µM] | Kd (MIER3) [µM] | Kd (EHMT2) [µM] | Kd (RERE) [µM] | other results
Nc1ccccc1NC(=O)CCCCCCC(=O)Nc1ccccc1 [BML-210] | > 85 | 30 | > 85 | 69 | 83 | 59 | 15 | 69 | 50 | 51 | 40 | 50 | 46 | 85 | 55 | > 85 | > 85 | 47 | > 85 | > 85 | binding profile for HDAC6 (in words) (HDAC6): complete loss of potency for class IIb; Kd (HDAC6; [9]): > 85 µM; binding profile for HDAC10 (in words) (HDAC10): complete loss of potency for class IIb; Kd [1]: > 85 µM
